Measured values published in US20220023269A1, “Methods Of Treating Diabetes In Severe Insulin-Resistant Diabetic Subjects” (Balticgruppen Bio AB, priority 2018, published 2022).

Assays:
[1] = target: T1, PP2C-mediated dephosphorylation of p-T172 of human recombinant AMPKα, -β, and -γ trimers (Homo sapiens, UniProt P54619+P54646+Q9Y478); experiment: AMPK in vitro de-phosphorylation assay; assay type: biochemical
T1 construct: purchased Life Technologies (AMPK trimer); Abcam (PP2Ca) PV4674 (Lot 1261361B); ab51205-100 (Lot GR54133-5)
T1 sequence (P54646 whole entry): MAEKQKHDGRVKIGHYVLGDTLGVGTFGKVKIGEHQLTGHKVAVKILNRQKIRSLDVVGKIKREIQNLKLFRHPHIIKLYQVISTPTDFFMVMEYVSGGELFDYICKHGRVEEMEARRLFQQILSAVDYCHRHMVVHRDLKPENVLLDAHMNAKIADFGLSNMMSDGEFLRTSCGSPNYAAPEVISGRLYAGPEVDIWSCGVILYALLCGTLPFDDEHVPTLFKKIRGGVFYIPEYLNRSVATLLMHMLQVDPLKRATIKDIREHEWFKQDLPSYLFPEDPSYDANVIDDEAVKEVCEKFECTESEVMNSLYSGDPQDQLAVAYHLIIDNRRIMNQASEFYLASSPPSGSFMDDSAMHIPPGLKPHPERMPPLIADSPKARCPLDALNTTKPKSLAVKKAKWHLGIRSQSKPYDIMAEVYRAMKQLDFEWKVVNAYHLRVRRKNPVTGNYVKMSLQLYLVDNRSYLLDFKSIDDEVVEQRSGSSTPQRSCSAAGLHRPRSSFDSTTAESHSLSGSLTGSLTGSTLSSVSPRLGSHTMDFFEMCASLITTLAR
T1 sequence (Q9Y478 2-270): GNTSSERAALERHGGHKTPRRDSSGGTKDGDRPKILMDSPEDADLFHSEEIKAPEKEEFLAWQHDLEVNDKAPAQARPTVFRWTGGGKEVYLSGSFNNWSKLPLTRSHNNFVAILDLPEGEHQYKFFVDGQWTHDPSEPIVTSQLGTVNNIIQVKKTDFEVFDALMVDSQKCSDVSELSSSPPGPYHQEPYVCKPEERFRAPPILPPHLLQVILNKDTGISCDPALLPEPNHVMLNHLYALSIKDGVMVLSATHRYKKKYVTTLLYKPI
T1 sequence (P54619 whole entry): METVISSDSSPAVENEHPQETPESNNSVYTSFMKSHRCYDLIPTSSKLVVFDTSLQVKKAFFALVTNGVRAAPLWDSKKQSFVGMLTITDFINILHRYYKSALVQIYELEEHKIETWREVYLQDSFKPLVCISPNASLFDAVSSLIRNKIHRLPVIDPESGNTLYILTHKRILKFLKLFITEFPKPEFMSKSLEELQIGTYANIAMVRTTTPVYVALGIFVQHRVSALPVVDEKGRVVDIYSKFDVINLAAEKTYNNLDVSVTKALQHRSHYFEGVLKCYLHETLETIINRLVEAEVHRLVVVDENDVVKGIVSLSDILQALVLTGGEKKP
Procedure: (§1) AMPKα2/β1/γ1 trimer (Life Technologies #PV4674, Lot 1261361B) (1 ng/μl) was incubated with 10 μM test material, 20 μM test material or 150 μM ADP (Sigma #A2754) +/−1 mM ATP (Sigma #A1852-1VL) in buffer (40 mM Hepes, 0.5 mM DTT, 0.2 mg/ml Gelatin (Sigma #G7041) and 0.4% DMSO), +/−PP2Ca (0.25-0.75 ng/μl) (Abcam ab51205-100; Lot GR54133-5) and 5 mM MnCl2 (total volume 20 μl). AMPKα2/β1/γ1+/−ATP was preincubated with the test material and ADP for 2 minutes at 30° C. before addition of PP2C/MnCl2 to start the dephosphorylation reaction which continued for 10-15 minutes at 30° C. Reactions were terminated by the addition of 0.17% BSA, 13 mM EDTA, 1.3×XT Sample buffer and 0.67% β-Mercaptoethanol in PBS. Samples were placed on ice, 5 minutes, heated at 100° C. for 5 minutes and chilled before run on a western gel. All steps were performed in high quality low-protein-binding eppendorf tubes. In a separate experiment 10 μM test material, 20 μM test material, 150 μM ADP alone or the combination of 10 μM test material+150 μM ADP and 20 μM test material+150 μM ADP was incubated with 1 ng/μl of AMPKα2/β1/γ1 or AMPKα1/β1/γ1 (Life Technologies #PV4672) trimer in buffer (40 mM Hepes, 0.5 mM DTT, 0.2 mg/ml gelatin and 0.4% DMSO)+/−0.25-0.5 ng/μl PP2Ca and 5 mM MnCl2 or 5 mM MgCl2. AMPK was sequentially preincubated with the test material and ADP or the combination for 2 minutes at 30° C. before sequential addition of PP2C/MnCl2 or PP2C/MgCl2 to start the dephosphorylation reaction which continued for 5-15 minutes at 30° C. The reaction was thereafter terminated and analysed as above.

[2] = system: PP2C-mediated dephosphorylation of p-T172 of human recombinant AMPKα, -β, and -γ trimers; experiment: AMPK in vitro de-phosphorylation assay; assay type: biochemical; details: with 150 μM ADP
Procedure: as §1

[3] = system: AMPK in rat insulinoma INS-1 cells; experiment: AMPK activation in INS-1 insulinoma cells; assay type: cell-based; details: 2.5, 5, 10 μM, 2 hours
Procedure: All cell lines were lysed in 0.1 M Tris-HCl, pH 6.8, 2% SDS, 10 mM sodium fluoride (SIGMA #S7920), 10 mM β-glycerophosphate (SIGMA #G6376), and 1 mM sodium vanadate (SIGMA #72060) and supernatant collected after 1 minute at 14,000 rpm. Islets (human and mouse) were lysed in 0.1 M Tris-HCl, pH 6.8, 2% SDS, protease inhibitor (Roche #04 693 124 001) and phosphatase inhibitor (Roche #04 906 837 001). Right calf muscle, heart, iWAT, and interscapular BAT was crushed in a pestle using liquid nitrogen and homogenised in ice cold RIPA buffer (150 mM sodium chloride (SIGMA #S7653), 1.0% NP40 (USB), 0.5% sodium deoxycholate (SIGMA #D6750), 0.1% SDS, 50 mM Tris pH 8.0, 20 mM sodium pyrophosphate (SIGMA #71515), 10 mM sodium fluoride, 10 mM β-glycerolphosphate, 1 mM sodium vanadate and protease inhibitor cocktail (Roche #04693124001), 1 tablet/10 ml lysis buffer). The supernatant was collected after 2 min at 14,000 rpm. This procedure was repeated until all fat was eliminated and the supernatant was clear, at 4° C. Samples were analysed on 4-15% polyacrylamide gels. Values were normalised toward AMPKα, β-Actin, GAPDH or the respective non-phosphorylated counterpart.
Table 3 contains origin of cell lines, growth conditions and settings for activation of AMPK via the test material. […]

CBA mice on HFD = experiment: Arginine-stimulated insulin secretion; assay type: in vivo; details: 0.8 mg/g in HFD, 11 w; arginine 1 g/kg i.p.
Procedure: Arginine-stimulated insulin secretion was determined following i.p. injection of arginine (SIGMA #A5131) (1 g/kg body weight) in non-fasted 21 weeks old CBA mice that had been on HFD or test material-HFD (0.8 mg/g) for 11 w. Blood glucose was measured using Glucometer (Ultra 2, One Touch) and plasma insulin analysed via the ultrasensitive mouse insulin ELISA kit (Chrystal Chem Inc. #90080). Area under the Curve (AUC) was calculated according to the trapezoid rule.

aged, lean B6 mice = experiment: Treadmill endurance test; assay type: in vivo; details: 20 mg/kg/day gavage, 30 days
Procedure: One week prior to the test mice went through a familiarization session of 5 minutes on the treadmill. Running protocol as follows: 15 minutes at 18.8 m/minute, 5 minutes at 24.4 m/minute and 27.1 m/minute until exhaustion. At exhaustion, blood lactate levels were measured using a lactate test meter (Arkray).

PP2C-mediated dephosphorylation of p-T172 AMPK ([1]; absence of ATP): suppressed
dephosphorylation of pAMPK ([1]; presence of excess ATP (1.0 mM)): protected pAMPK from dephosphorylation
Structure (SMILES): O=C(Nc1nc(=O)n(Cc2ccc(Cl)cc2)s1)c1ccc(Cl)cc1 [test material, 4-chloro-N-[2-[(4-chlorophenyl)methyl]-3-oxo-1,2,4-thiadiazol-5-yl]benzamide]
effect together with ADP on pAMPK dephosphorylation [2]: acted in an additive manner with ADP
pAMPKα [3]: directly increased pAMPKα
arginine stimulation of insulin secretion, increase vs HFD (CBA mice on HFD): 2 fold
blood lactate levels after endurance test (aged, lean B6 mice): significantly reducing the increase in blood lactate levels
endurance capacity (running distance to exhaustion) (aged, lean B6 mice; vs vehicle): significantly improved endurance capacity
